Measurements reported in patent US12215389B2, “Compositions for detecting epigenetic modifications” (EXACT SCIENCES CORPORATION, priority 2007, dated 2025).

Tested on: methylated gene promoters in fecal DNA
Experiment: Real-time MSP on stool (fecal) DNA
Set-up: species or system human
Details: fecal samples; for Sens adenoma: 13 samples; for Sens CRC: 15 samples; for Spec: 19 samples
Excerpt: A standardized multicenter screening trial (The Netherlands) was initiated in 2006. In this trial, non symptomatic subjects aged 50 or above are screened with colonoscopy, FOBT and real-time MSP using DNA from stool and blood. In addition, prospectively collected stool samples from multiple centers (Germany and The Netherlands) were used. In these trials, symptomatic patients, attending a Gastroenterology clinic and ultimately diagnosed with CRC, provided a stool sample for use in real-time MSP. From the ongoing trials 147 stool samples were available for the present study. 3 main categories of stool samples were used: 67 samples with no suspicious findings, 58 adenomas and 22 samples from patients covering all stages of CRC, with 90% representing early stage disease.
After defecation in a special bucket, patients added 250 ml of stool homogenization buffer (Amresco, Solon, Ohio, USA) to the sample. Samples were shipped to the laboratory and further processed within 72 hours after defecation. Stool homogenization buffer was added to a ratio 1:7, and the samples were homogenized and aliquoted in portions of 32 ml.
Single aliquots (32 ml containing the equivalent of 4 g of stool) were centrifuged for 5 minutes at 2540 rcf at 20° C. The supernatant was retained and centrifuged a second time (10 minutes at 16500 rcf at 4° C.). 22 ml of the supernatant obtained following the second centrifugation step was incubated with 5 μl Rnase A for 60 minutes at 37° C. Total DNA was then SodiumAcetate (pH 5.2)-isopropanol precipitated and washed with 70% ethanol. The DNA was resuspended in 4 ml 1×TE (pH 7.4). 400 μl 10× buffer (240 mM EDTA (pH=8.0), 750 mM NaC), 400 μl 10% SDS, and 20 μl Proteinase K (20 mg/ml) was added and the samples were incubated at 48° C. overnight at constant shaking (225 RPM). After centrifugation (3000 RCF for 30 seconds at room temperature), 5 ml of Phenol:Chloroform:Isoamylalcohol (25:24:1, v/v:Invitrogen) was added and incubated for 10 minutes at room temperature shaking at 225 RPM and centrifuged for 5 minutes at 3000 RCF. The aqueous layer was transferred to a new tube containing 5 ml of Phenol:Chloroform:Isoamylalcohol. Again, the samples were incubated for 10 minutes at room temperature shaking at 225 RPM and centrifuged for 5 minutes at 3000 RCF at room temperature. The aqueous layer was transferred to a new tube and DNA was precipitated by adding 500 μl 7.5 M Ammonium Acetate, 5 μl glycogen and 10 ml of cold 100% Ethanol (−20° C.), further incubated at −20° C. for at least 1 hour and centrifuged at 15000 RCF for 30 minutes at 4° C. Pellets were washed with 3.5 ml freshly prepared 70% Ethanol and air dried. Pellets were finally resuspended in 2 ml of LoTE pH 8.0 and stored at −80° C., until further processing.
An upscaled DNA modification step was applied to 32 μg of the obtained DNA. 16 Aliquots of 2 μg of DNA were subjected to bisulfite modification in 96-wells format on a pipetting robot (Tecan), using the EZ-96DNA Methylation kit (Zymo Research), according to the manufacturer's protocol. Basically, aliquots of 45 μl were mixed with 5 μl of M-Dilution Buffer and incubated at 37° C. for 15 minutes shaking at 1100 rpm. Then 100 μl of the diluted CT Conversion Reagent was added and samples were incubated at 70° C. for 3 hours, shaking at 1100 rpm in the dark. After conversion, the samples were desalted by incubation on ice for 10 minutes and addition of 400 μl of M-Binding buffer. The samples were loaded on a Zymo-Spin I Column in a collection tube and after centrifugation washed with 200 μl of M-Wash Buffer. 200 μl of M-Desulphonation Buffer was put onto the column and incubated at room temperature for 15 minutes. After centrifugation of the columns, they were washed twice with 200 μl of M-Wash Buffer. Finally, the DNA was washed from the column in 50 μl Tris-HCl 1 mM pH8.0 and stored at −80° C., until further processing.

Q: With “GATA5 (DNA AGTTCGTTTTTAGGTTAGTTTTCGGC; listed as DNA, chemistry not given here)” as the substance, how does the Sens adenoma read?
A: Its Sens adenoma is 0%.

Q: What about the “Sens CRC” value of the same substance?
A: The value was 27%.

Q: And the Spec?
A: Its Spec is 100%.

Q: With “SFRP1 (DNA TGTAGTTTTCGGAGTTAGTGTCGCGC; listed as DNA, chemistry not given here)” as the substance, how does the Sens adenoma read?
A: The Sens adenoma was 8%.

Q: And the “Sens CRC” value?
A: Its value is 67%.

Q: And the Spec?
A: The Spec was 100%.
